We go through 63 compounds from a melting point compilation (Tetko et al.; mined from patent text by program, amines drawn as free bases though some values may be those of a salt).

The melting point is the temperature of the solid-liquid transition.

`CSc1ccc(-c2c(C)n[nH]c(=O)c2-c2ncc(Cl)cc2Cl)nc1`: the melting point came out at 229 °C.
Consider `O=CN(O)C1(CS(=O)(=O)c2ccc(Oc3ccc(OC(F)(F)F)cc3)cc2)CCC(C(=O)O)CC1` (stereo not drawn), for which the melting point amounted to 207 °C.
For the compound `COc1ccc2cc(C(=O)NC3N=C(c4ccccc4)c4ccccc4-n4c(C)nnc43)[nH]c2c1` (stereo not drawn), the melting point lay within 160 to 170 °C.
For `CC(C)(N)c1ccc(-c2nc(Nc3ccc(CCn4ccnc4)cc3)ncc2Cl)cc1F`, the melting point is 112 to 120 °C.
In turn, `CCCCOCn1c(-c2ccc(Cl)cc2)c(C#N)c(Br)c1C(F)(F)F` registered a melting point of 52 to 53.5 °C.
Compound `O=C(O)CCc1cn(Cc2ccc(OCc3ccoc3)cc2)cc1-c1ccccc1` yielded a melting point of 110 to 111 °C.
`Cc1c(NC(=O)c2ccc(-c3ccc(F)cc3)cc2F)ccc2cc(CN3CCCCC3)cnc12` gave a melting point of 186 to 187 °C.
Compound `OC1CCN(c2nnc(-c3ccc(Cl)cc3)c(-c3ccc(Cl)cc3)n2)CC1` had a melting point of 102 to 105 °C.
On to `C#CCOc1cc(C(=O)O)cc(N)c1-c1ccccc1`, for which the melting point lay in the range of 172 to 173 °C.
In the case of `CNC(=O)C(Cc1ccccc1)NC(=O)C(CC(C)C)C(S)CC(=O)OC` (stereo not drawn) it was 169 to 171 °C; in that of `C=COC(=O)N1C[C@@H]2C(=O)CCC(c3cccc(F)c3)(c3cccc(F)c3)[C@@H]2C1` (racemic), 152 °C; in that of `CCCSc1ncc(CO)n1Cc1ccccc1Cl`, 98 to 101 °C.
In the case of `O=[N+]([O-])c1ccc2c(c1)N(C1CCN(CCc3ccc(F)cc3)CC1)CC2`, the melting point lay in the range of 104 to 106 °C.
In the case of `FC(F)(c1ccccc1)C(F)(F)c1ccccc1CBr`, the melting point was in the range of 70 to 77 °C.
In turn, `O=C(CCl)N[C@@H]1CCCC[C@H]1NC(=O)CCl` (relative stereo) had a melting point of 202 to 203 °C.
`COC(=O)c1sc(C)c2ncn(Cc3ccc(-c4ccccc4-c4nnn[nH]4)cc3)c12`: the melting point fell in the range of 188 to 189 °C.
In turn, `O=C(NC1=CCN(CCc2ccccc2)CC1)c1ccccc1` gave a melting point of 115 to 117 °C.
On to `O=C(O)CCC(=O)Nc1ccc(Nc2ccccc2)cc1`, for which the melting point lay within 175 to 176 °C.
The same measure for `COc1cc(OC)n2sc(=NS(=O)(=O)c3c(-c4nnn(C)n4)cnn3C)nc2n1`: 182 to 183 °C; for `C#CCOc1cc2c(=O)cc(C(=O)OCC)n(CC#C)c2ccc1=O`: 169 °C; for `CCOc1c(-c2nnn[nH]2)oc2c3ccccc3n(-c3ccccc3)c12`: 189 to 192 °C.
As for `CC(C)=CC(O)C(Br)(Br)Br` (stereo not drawn), the melting point lay within 81.5 to 82 °C.
As to `COc1ccc2c(c1)C(=O)c1ccc(C3=NCCN3)cc1S2(=O)=O`, the melting point lay in the range of 220 to 224 °C.
In the case of `Oc1ccc(C2COC(c3c(F)cccc3F)=N2)cc1` (stereo not drawn), the melting point was 145 to 147 °C.
As for `O=C(N[C@H]1CC[C@H](CCN2CCN(c3nccc4c3CCO4)CC2)CC1)C1(O)CC1`, the melting point was determined as 174 °C.
Consider `O=C(O)Cc1ccc(Br)cc1C(=O)O`, for which the melting point was in the range of 210 to 213 °C.
As to `O=C(O)CCc1ccc(CCNS(=O)(=O)c2ccc(Cl)cc2)s1`, the melting point lay in the range of 127 to 130 °C.
The compound `COC(=O)C1=C(C)NC(C)=C(c2nc(CCl)no2)C1c1cccc([N+](=O)[O-])c1` (stereo not drawn) registered a melting point of 200 to 202 °C.
The same measure for `COC(=O)c1cc(C(=O)c2ncc3ccc(C(=O)O)cn23)ccc1[N+](=O)[O-]`: 290 °C.
Compound `O=c1c(CO)cc(-c2ccc3c(c2)CCO3)nn1Cc1ccc(Cl)cc1` registered a melting point of 129 to 134 °C.
Compound `CC(=O)c1c(C(=O)N(C)C)[nH]c2ccc(Cl)cc12` displayed a melting point of 150 to 155 °C.
As for `CSc1ccc(-c2c(C)nnc(Cl)c2-c2ncc(Cl)cc2Cl)nc1`, the melting point was found to be 163 °C.
The compound `CCOC(=O)c1c(CC(=O)O)n(-c2ccc(OC(C)C)cc2)c2ccc(Oc3ccc(CCl)cn3)cc12` came in with a melting point of 153 to 155 °C.
The compound `Cc1cccc(-c2nc(N)ncc2-c2ccc(=O)n(C)n2)c1` returned a melting point of 214 °C.
As for `Cc1cc2ccccc2c(Oc2ccc(/C=C/C(=O)O)cc2)c1-c1ccccc1`, the melting point was in the range of 224 to 225 °C.
`CNC(=NS(C)(=O)=O)NCCSCc1csc(NC(N)=NCC(F)F)n1` returned a melting point of 85 to 89 °C.
The compound `CN1CCOC(C2=C(C#N)C(c3cccc(C#N)c3Br)c3c[nH]nc3N2)C1` (stereo not drawn) showed a melting point of 180 °C.
In the case of `CC(=O)Nc1nc2ccc(S(=O)(=O)n3c(CCCC(=O)O)cc4cc(Cl)ccc43)cc2s1` it was over 250 °C; in that of `O=C(O)c1cnc(N2CCC(NS(=O)(=O)c3ccc4ccccc4c3)CC2)nc1`, over 260 °C; in that of `O=c1nc(-c2cccc(SCCCc3ccccc3)n2)sc2ccccc12`, 192 to 194 °C.
In the case of `CC(C)(C)c1ccc2c(c1)C(=O)c1ccc(-c3nnn[nH]3)cc1S2(=O)=O` it was 228 °C; in that of `CC1(C)C(=O)Nc2ccc(-c3ccc([N+](=O)[O-])s3)cc21`, 223 to 225 °C; in that of `CNc1coc2ccccc2c1=S`, 134 °C.
`CSc1ccc(C2=C(c3ccc(F)cc3C)CCC2)cc1`: the melting point is 67 to 68 °C.
The same measure for `NC(=O)N(O)Cc1ccc(Oc2ccc(-n3ccnc3)cc2)o1`: 155 °C; for `COc1ccc(C(=O)Nc2ccc3ccc(Cl)nc3n2)cc1OC`: 196 °C; for `N#CC=C(N)c1ccc2ccccc2c1`: 85 to 90 °C.
In the case of `CCC1(C)OC(c2ccc(S(N)(=O)=O)cc2)=C(c2ccc(C(C)=O)cc2)C1=O` (stereo not drawn) it was 154 to 155 °C; in that of `NC(=O)c1cccc2c1CC(N(CCCc1c[nH]c3ccc(F)cc13)C1CCC1)CO2` (stereo not drawn), 102 to 105 °C; in that of `O=C(c1ccccc1)N(CC(=O)N1c2ccccc2N(Cc2ccccc2)C(=O)[C@H]2CCC[C@H]21)Cc1ccccc1` (relative stereo), 166 to 168 °C.
Regarding `O=CNc1ccc(-c2cc[nH]n2)cc1`, the melting point lay within 139 to 141 °C.
The same measure for `CC(=O)Nc1cccc(-c2nc3n(n2)CCc2ccccc2-3)c1`: 225 to 226 °C.
In turn, `COc1ccccc1N1CCN(CCCn2c(=O)[nH]c3cscc3c2=O)CC1` showed a melting point of 187 to 188 °C.
`CCOCn1c(-c2sc(Cl)c(Cl)c2Cl)c(C#N)c(Br)c1C(F)(F)F`: the melting point was 85 to 87 °C.
As for `Cc1ccc2c(C(=O)C(F)(F)F)c[nH]c2c1`, the melting point lay in the range of 216 to 218 °C.
`CCOC(=O)CCCOc1ccc2nc3c(cc2c1)CC(=O)N3` had a melting point of 181 °C.
With `CCCCCCCCCCCCCCCCCCNC(=O)C(=O)NCCc1ccc(O)cc1`, the melting point stood at 167 °C.
For `CC(=O)Oc1cc(N(C)C2CCCCC2)c2ccccc2c1OC(C)=O`, the melting point lay within 103 to 105 °C.
For `O=C(NCc1ccc(Cl)cc1)c1cnc2c(F)cc(-c3cc(Br)cs3)cc2c1O`, the melting point was 281 to 283 °C.
On to `O=C(O)[C@]1(c2ccc(Br)cc2)CC1(c1ccccc1)c1ccccc1`, for which the melting point was 180 to 182 °C.
In the case of `N#Cc1cc(-c2ccco2)nc(N)n1`, the melting point fell in the range of 193 to 194 °C.
As for `Cc1ccc(CCCCCCCCCCC(Cl)(Cl)C(=O)O)cc1`, the melting point fell in the range of 58 to 59 °C.
Turning to `CCOC(=O)c1c(O)c2cccnc2n(Cc2ccc(Cl)cc2)c1=O`, the melting point was in the range of 142 to 144 °C.
